Measurements from patent US12410211B2, “V1A receptor partial agonist and method of use” (PharmaIN Corporation, priority 2020, dated 2025).
Read-outs that look alike come from different tables or passages of the source. Marks after values point to notes of the source that are not given here. One block for each compound: values may come before it. Where a SMILES comes first, the peptide text is derived from it. Bridges are numbered along the chain shown (N, C = ends). [ ]: non-standard residue; d: D form. Aad = N[C@@H](CCCC(=O)O)C(=O)O; Dab = NCC[C@H](N)C(=O)O; Mpa = O=C(O)CCS

Assays:
V1a receptor = molecular target: T1, V1a receptor (Homo sapiens, UniProt P37288); test: V1a Human Vasopressin GPCR Cell Based Agonist Calcium Flux Assay; details: for Emax: read-out: V1a Highest agonist effect (% of AVP)
T1 construct: host or cells: CHO cells
T1 sequence (P37288 whole entry): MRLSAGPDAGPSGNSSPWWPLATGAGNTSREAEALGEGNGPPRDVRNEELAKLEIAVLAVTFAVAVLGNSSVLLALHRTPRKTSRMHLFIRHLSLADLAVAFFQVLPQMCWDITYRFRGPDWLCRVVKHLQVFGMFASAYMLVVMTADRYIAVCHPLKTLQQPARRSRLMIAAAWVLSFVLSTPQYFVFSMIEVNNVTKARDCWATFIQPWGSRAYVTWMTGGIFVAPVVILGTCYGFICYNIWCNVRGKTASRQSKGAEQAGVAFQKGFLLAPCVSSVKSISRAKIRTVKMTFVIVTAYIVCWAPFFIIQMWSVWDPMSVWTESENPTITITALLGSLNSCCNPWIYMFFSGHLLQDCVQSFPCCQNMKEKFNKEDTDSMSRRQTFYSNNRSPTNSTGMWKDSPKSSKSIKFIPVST
Method: Peptides of Formula (I) include Mpa-Tyr-Phe-Hgn-Asn-Cys-Pro-Lys(X)a-Gly-NH2 [SEQ ID NO. 24]; where (X)a is a peptide with “a” residues and each residue X is independently selected from Gly, and a D- or L-amino acid version of Ala, Lys, Orn, Glu, and Asp, where “a” is 0-10. V1a Human Vasopressin GPCR Cell Based Agonist Calcium Flux Assay were conducted at Eurofins Cerep SA (France) on a fee for service basis. Human recombinant CHO cells expressing human V1 receptors were distributed in microplates. Intracellular calcium signal was detected by fluorimetry, and the signal was acquired before and after addition of a known agonist concentration. The following agonist concentrations were tested (nM); 0.0128, 0.064, 0.32, 1.6, 8, 40, 200, and 1,000. […] All assays were performed in duplicate. Changes in fluorescence intensity reflected changes in the concentration of free cytosolic calcium. […] The half-maximal effective concentration (EC50) was determined by a non-linear regression analysis of the concentration-response curves generated with mean replicate values using Hill equation curve fitting (Cerep, I'Evescault, France).
V1a Human Vasopressin GPCR Cell Based Agonist Calcium Flux Assay were conducted using human recombinant CHO cells expressing human V1 receptor. Briefly, human recombinant CHO cells expressing human V1 receptor were distributed in microplates at 4.5×10^4 cells/well. The fluorescent probe (Fluo4 Direct, Invitrogen) mixed with probenicid in HBSS buffer (Invitrogen) complemented with 20 mM HEPES (Invitrogen) (pH 7.4) is then added into each well and equilibrated with the cells for 60 min at 37° C. then 15 min at 22° C. Thereafter, the assay plates are positioned in a microplate reader (CellLux, PerkinElmer) which is used for the addition of the test compound, reference agonist or HBSS buffer (basal control), and the measurements of changes in fluorescence intensity which varies proportionally to the free cytosolic Ca^2+ ion concentration. The following agonist concentrations were tested (nM), 0.0128, 0.064, 0.32, 1.6, 8, 40, 200, and 1,000. […] All assays were performed in duplicate. Changes in fluorescence intensity reflected changes in the concentration of free cytosolic calcium. […] Referring to FIG. 3 and Table 4, the half-maximal effective concentration (EC50) was determined by non-linear regression analysis of the concentration-response curves generated with mean replicate values using Hill equation curve fitting (Cerep, I'Evescault, France).

[1] = Therapeutic index (NOAEL/NOEL): paleness, lethargy, ataxia observation in Sprague-Dawley rats (Example 7); assay type: in vivo; details: for Highest dose with no-observed effect level or paleness (NOEL) / NOAEL/NOEL (therapeutic index) / NOAEL / Paleness (Duration, hrs; SD) / NOAEL at 24 h: S.C.; for Highest dose with no-observed effect level or paleness (NOEL) / NOAEL/NOEL (therapeutic index) / NOAEL / Marked adverse effect (Lowest dose first showed Ataxia) / Mild adverse effect (Lowest dose first showed Lethargy) / NOAEL at 24 h: rat; for NOAEL / Marked adverse effect (Lowest dose first showed Ataxia) / Mild adverse effect (Lowest dose first showed Lethargy) / NOAEL at 24 h: in vivo, sc; for NOAEL / NOAEL at 24 h: read-out: Highest dose with no-observed adverse effect level without lethargy (NOAEL); for NOAEL at 24 h: male, Sprague-Dawley
Excerpt: As used herein, the term “therapeutic index” (TI; also referred to as therapeutic ratio) is a quantitative measure of the relative safety of a drug. […] For the purpose of the present application, lethargy is a lack of energy and/or sleepiness which is visually observed in rats as a lack of mobility, such as a lack of mobility even in the presence of human activity. For the purpose of present specification, peripheral vasoconstriction is visually observed by a paleness of the extremities (e.g., skin of hands, feet, ears, and lips). In rats, peripheral vasoconstriction is determined by a side-by-side comparison of ear paleness in treated subjects (e.g., Sprague Dawley rats, a white rat with easily visualizable changes in redness/paleness) vs. untreated control subjects. The V1a agonist (or partial agonist) with a high therapeutic index will have a better safety profile than that with a low therapeutic index by providing a wider margin of safety for dosing during the treatment of the disease. This NOAEL/NOEL ratio, being a quantitative measure of the relative safety, is a comparison of the amount of a therapeutic agent that causes the therapeutic effect (useful effect, vasoconstriction for the purpose of the present specification) to the amount that causes toxicity. A V1a agonist that causes severe vasoconstriction will affect not only the peripheral vessels, with several layer of smooth muscles, but also other vessels present in other organs (e.g., heart, lungs, kidney, brain) and this will result in observed lethargy and eventually ataxia. A partial agonist is less likely to reach such an extreme level of vasoconstriction and is believed to have a higher therapeutic index.
In this study, 8 to 10 weeks male Sprague-Dawley rats (Charles River; Wilmington, MA) under isoflurane anesthesia (n=3 or 6) were intravenously (IV) or subcutaneously (SC) injected or administered with various test articles. Prior to administration of test articles, the injection area was clipped free of fur, to allow for clear visualization of the dose site, and animal weight was measured and recorded. Animals were housed two per cage. […] Lethargy is when the animal eyes cannot fully open and is associated deep breathing and limited of movement even in the presence of human.

[2] = Table 3, cells printed in μM, read-out: Estimated V1a EC50, n = 2
[3] = FIG. 2 / FIG. 3 legend, n=2, read-out: EC50 for V1a receptor
[4] = at the Marked adverse effect dose
[5] = at the Mild adverse effect dose

SMILES: CC(=O)NCCCC[C@H](NC(=O)[C@@H]1CCCN1C(=O)[C@@H]1CSSCCC(=O)N[C@@H](Cc2ccc(O)cc2)C(=O)N[C@@H](Cc2ccccc2)C(=O)N[C@@H](CCCC(N)=O)C(=O)N[C@@H](CC(N)=O)C(=O)N1)C(=O)NCC(N)=O [SEQ ID NO. 28, Mpa-Tyr-Phe-Hgn-Asn-Cys-Pro-Lys(X)a-Gly-NH2; (X)a = Ac]
EC50 (V1a receptor; [2]): > 10 µM
Emax (V1a receptor; Table 3, n = 2): 30%
Highest dose with no-observed effect level or paleness (NOEL) [1]: 100 µg/kg
NOAEL/NOEL (therapeutic index) [1]: 3
NOAEL [1]: 330 µg/kg
Marked adverse effect (Lowest dose first showed Ataxia) [1]: 3 mg/kg
Mild adverse effect (Lowest dose first showed Lethargy) [1]: 1 mg/kg

SMILES: NCC(=O)NCC(=O)NCC(=O)NCC(=O)NCC(=O)NCC(=O)NCC(=O)NCC(=O)NCC(=O)NCCCC[C@H](NC(=O)[C@@H]1CCCN1C(=O)[C@@H]1CSSCCC(=O)N[C@@H](Cc2ccc(O)cc2)C(=O)N[C@@H](Cc2ccccc2)C(=O)N[C@@H](CCCC(N)=O)C(=O)N[C@@H](CC(N)=O)C(=O)N1)C(=O)NCC(N)=O [SEQ ID NO. 16, Mpa-Tyr-Phe-Hgn-Asn-Cys-Pro-Lys(X)a-Gly-NH2; (X)a = (Gly)9]
EC50 (V1a receptor; [3]): 0.105 µM
Emax (V1a receptor; Table 3, n = 2): 28.1%
Paleness (Duration, hrs; SD) [1, 4]: (>6.99)* hrs
Paleness (Duration, hrs; SD) [1, 5]: (>6.14)* hrs
Paleness (Duration, hrs; SD) ([1]; at the NOAEL dose): (7.14 ± 0.11) hrs
Paleness (Duration, hrs; SD) ([1]; at the NOEL dose): None observed
Highest dose with no-observed effect level or paleness (NOEL) [1]: 5 µg/kg
NOAEL/NOEL (therapeutic index) [1]: 100
NOAEL at 24 h [1]: 0.5 mg/kg
Marked adverse effect (Lowest dose first showed Ataxia) [1]: 5.0 mg/kg
Mild adverse effect (Lowest dose first showed Lethargy) [1]: 1.5 mg/kg

SMILES: NCC(=O)NCC(=O)NCC(=O)NCC(=O)NCCCC[C@H](NC(=O)[C@@H]1CCCN1C(=O)[C@@H]1CSSCCC(=O)N[C@@H](Cc2ccc(O)cc2)C(=O)N[C@@H](Cc2ccccc2)C(=O)N[C@@H](CCCC(N)=O)C(=O)N[C@@H](CC(N)=O)C(=O)N1)C(=O)NCC(N)=O [SEQ ID NO. 11, Mpa-Tyr-Phe-Hgn-Asn-Cys-Pro-Lys(X)a-Gly-NH2; (X)a = (Gly)4]
EC50 (V1a receptor; Table 3, CHO cells expressing human V1 receptor, read-out: Estimated V1a EC50 (nM), n = 2): 0.161 µM
Emax (V1a receptor; Table 3, n = 2): 33.6%
Paleness (Duration, hrs; SD) [1, 4]: (>6.93)* hrs
Paleness (Duration, hrs; SD) [1, 5]: (>6.85)* hrs
Paleness (Duration, hrs; SD) ([1]; at the NOAEL dose): (6.02 ± 0.06) hrs
Paleness (Duration, hrs; SD) ([1]; at the NOEL dose): None Observed
Highest dose with no-observed effect level or paleness (NOEL) [1]: 1.5 µg/kg
NOAEL/NOEL (therapeutic index) [1]: 100
NOAEL at 24 h [1]: 0.15 mg/kg
Marked adverse effect (Lowest dose first showed Ataxia) [1]: 1.5 mg/kg
Mild adverse effect (Lowest dose first showed Lethargy) [1]: 0.5 mg/kg

SMILES: NCC(=O)NCC(=O)NCC(=O)NCC(=O)NCC(=O)NCC(=O)NCCCC[C@H](NC(=O)[C@@H]1CCCN1C(=O)[C@@H]1CSSCCC(=O)N[C@@H](Cc2ccc(O)cc2)C(=O)N[C@@H](Cc2ccccc2)C(=O)N[C@@H](CCC(N)=O)C(=O)N[C@@H](CC(N)=O)C(=O)N1)C(=O)NCC(N)=O [SEQ ID NO. 20, Mpa-Tyr-Phe-Gln-Asn-Cys-Pro-Lys(X)a-Gly-NH2; (X)a = (Gly)6]
EC50 (V1a receptor; [3]): 0.0273 µM
Emax (V1a receptor; Table 4, n = 2): 60.9%
Paleness (Duration, hrs; SD) [1, 4]: (>6.76)* hrs
Paleness (Duration, hrs; SD) [1, 5]: (>5.46)* hrs
Paleness (Duration, hrs; SD) ([1]; at the NOAEL dose): (6.11 ± 0.09) hrs
Paleness (Duration, hrs; SD) ([1]; at the NOEL dose): None observed
Highest dose with no-observed effect level or paleness (NOEL) [1]: 1.5 µg/kg
NOAEL/NOEL (therapeutic index) [1]: 100
NOAEL at 24 h [1]: 0.15 mg/kg
Marked adverse effect (Lowest dose first showed Ataxia) [1]: 5.0 mg/kg
Mild adverse effect (Lowest dose first showed Lethargy) [1]: 0.5 mg/kg

SMILES: NCC(=O)NCC(=O)NCC(=O)NCCCC[C@H](NC(=O)[C@@H]1CCCN1C(=O)[C@@H]1CSSCCC(=O)N[C@@H](Cc2ccc(O)cc2)C(=O)N[C@@H](Cc2ccccc2)C(=O)N[C@@H](CCCC(N)=O)C(=O)N[C@@H](CC(N)=O)C(=O)N1)C(=O)NCC(N)=O [SEQ ID NO. 10, Mpa-Tyr-Phe-Hgn-Asn-Cys-Pro-Lys(X)a-Gly-NH2; (X)a = (Gly)3]
EC50 (V1a receptor; [3]): 0.0535 µM
Emax (V1a receptor; Table 3, n = 2): 32.9%
Paleness (Duration, hrs; SD) [1, 4]: (6.4 ± 0.07) hrs
Paleness (Duration, hrs; SD) [1, 5]: (6.27 ± 0.13) hrs
Paleness (Duration, hrs; SD) ([1]; at the NOAEL dose): (5.65 ± 0.4) hrs
Paleness (Duration, hrs; SD) ([1]; at the NOEL dose): None observed
Highest dose with no-observed effect level or paleness (NOEL) [1]: 1.5 µg/kg
NOAEL/NOEL (therapeutic index) [1]: 100
NOAEL at 24 h [1]: 0.15 mg/kg
Marked adverse effect (Lowest dose first showed Ataxia) [1]: 1.5 mg/kg
Mild adverse effect (Lowest dose first showed Lethargy) [1]: 0.5 mg/kg

Emax (V1a receptor; Table 3, n = 2): 7.5%
SMILES: NC[C@H](N)C(=O)NCCCC[C@H](NC(=O)[C@@H]1CCCN1C(=O)[C@@H]1CSSCCC(=O)N[C@@H](Cc2ccc(O)cc2)C(=O)N[C@@H](Cc2ccccc2)C(=O)N[C@@H](CCCC(N)=O)C(=O)N[C@@H](CC(N)=O)C(=O)N1)C(=O)NCC(N)=O [SEQ ID NO. 29, Mpa-Tyr-Phe-Hgn-Asn-Cys-Pro-Lys(X)a-Gly-NH2; (X)a = Dap]

EC50 (V1a receptor; [2]): > 10 µM
Emax (V1a receptor; Table 3, n = 2): 40%
SMILES: CC(=O)NCC(=O)NCC(=O)NCC(=O)NCC(=O)NCC(=O)NCC(=O)NCC(=O)NCC(=O)NCC(=O)NCCCC[C@H](NC(=O)[C@@H]1CCCN1C(=O)[C@@H]1CSSCCC(=O)N[C@@H](Cc2ccc(O)cc2)C(=O)N[C@@H](Cc2ccccc2)C(=O)N[C@@H](CCCC(N)=O)C(=O)N[C@@H](CC(N)=O)C(=O)N1)C(=O)NCC(N)=O [SEQ ID NO. 26, Mpa-Tyr-Phe-Hgn-Asn-Cys-Pro-Lys(X)a-Gly-NH2; (X)a = (Gly)9-Ac]

SMILES: NCCC[C@H](NC(=O)[C@@H]1CCCN1C(=O)[C@@H]1CSSCCC(=O)N[C@@H](Cc2ccc(O)cc2)C(=O)N[C@@H](Cc2ccccc2)C(=O)N[C@@H](CCCC(N)=O)C(=O)N[C@@H](CC(N)=O)C(=O)N1)C(=O)NCC(N)=O [SEQ ID NO. 30, Mpa-Tyr-Phe-Hgn-Asn-Cys-Pro-Orn-Gly-NH2]
Highest dose with no-observed effect level or paleness (NOEL) [1]: 0.5 µg/kg
NOAEL [1]: 5 µg/kg
Marked adverse effect (Lowest dose first showed Ataxia) [1]: 0.044 mg/kg
Mild adverse effect (Lowest dose first showed Lethargy) [1]: 0.015 mg/kg

SMILES: NCC[C@H](NC(=O)[C@@H]1CCCN1C(=O)[C@@H]1CSSCCC(=O)N[C@@H](Cc2ccc(O)cc2)C(=O)N[C@@H](Cc2ccccc2)C(=O)N[C@@H](CCCC(N)=O)C(=O)N[C@@H](CC(N)=O)C(=O)N1)C(=O)NCC(N)=O [SEQ ID NO. 31, Mpa-Tyr-Phe-Hgn-Asn-Cys-Pro-Dab-Gly-NH2] ([Mpa]YF[Aad](NH2)NCP[Dab]G-NH2; disulfide 1-6)
Highest dose with no-observed effect level or paleness (NOEL) [1]: 0.5 µg/kg
NOAEL [1]: 5 µg/kg
Marked adverse effect (Lowest dose first showed Ataxia) [1]: 0.045 mg/kg
Mild adverse effect (Lowest dose first showed Lethargy) [1]: 0.015 mg/kg
